# Results: patent publication US8703188B1, “Dispersible tablet” (Azanta A/S, priority 2012, dated 2014)
# Key:
# [1] = Solubility of Nimorazole in water; format: physicochemical
# [2] = The Merck Index, 14th Edition; cited from earlier work
smiles,measurement,setting,value
O=[N+]([O-])c1cncn1CCN1CCOCC1 [Nimorazole],solubility,[1],4910 µg/mL
same,solubility in water,[2],slightly soluble
